Test [1] concerns the target T1, caspase-3 (Rattus norvegicus, UniProt P55213).
T1 construct: endogenous in cells; host or cells: primary rat thymocytes (Sprague-Dawley), spontaneous apoptosis in culture
T1 sequence (P55213 29-175 limits assumed): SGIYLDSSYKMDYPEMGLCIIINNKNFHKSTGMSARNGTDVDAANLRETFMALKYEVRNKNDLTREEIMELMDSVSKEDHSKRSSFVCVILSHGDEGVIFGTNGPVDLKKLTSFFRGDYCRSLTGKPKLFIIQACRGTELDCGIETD
T1 sequence (P55213 176-277 limits assumed): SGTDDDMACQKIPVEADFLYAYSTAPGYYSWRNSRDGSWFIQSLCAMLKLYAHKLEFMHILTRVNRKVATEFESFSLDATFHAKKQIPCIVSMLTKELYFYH
The experiment in a line: Caspase active site occupancy by [125I]-M808 labeling in whole rat thymocytes. The class given is cell-based. The method, then: FIG. 5. Determination of caspase active site occupancy by M867 in cultured rat thymocytes. A-Theoretical calculations for the determination of the percentage of caspase-3 active sites occupied by M867 in whole cells. The total amount of caspase-3 p17 subunit is determined densitometrically by either Western blotting of saturation [^125I]-M808 labeling. Partial labeling of active caspases in whole cells is perforemd (see materials and methods). A graph of the p17 amount against partial [^125I]-M808 labeling signal in the absence of M867 (or other reversible caspase inhibitors) is plotted. The [^125I]-M808 signal expected from the measured p17 amount is estimated form this plot. The actual [^125I]-M808 signal (by partial labeling) in the presence of reversible inhibitor is measured. The ratio of actual [^125I]-M808 signal over expected [^125I]-M808 signal multiplied by 100=the percentage of caspase active sites unoccupied by an inhibitor. The percentage occupancy=100−% free active sites. B-C An actual determination of caspase active site occupancy by M867 in whole rat thymocytes. B-caspase-3 western blot. C-[^125I]-M808 signal from whole rat thymocytes exposed to increasing concentrations of M867. Comparison of M867 caspase inhibition potency (IC50) determined by DNA fragmentation inhibition and [^125I]-M808 labeling is also depicted. […]

For test [2], the target named is T1, caspase-3. The experiment in a line: Caspase-3 western blot in cultured rat thymocytes. The class given is cell-based. As to conditions: FIG. 5B. On the procedure: Rat thymocytes were cultured for 24 hours at a density of 10×10^6 cells/ml in CytoSF4 supplemented with 2 mM L-glutamine and penicillin-streptamycin and the indicated concentration of caspase inhibitors.
Denatured protein extracts in 1× Laemli buffer were resolved through a 18% acrylamide gradient SDS-PAGE gel (Invitrogen) at 30 mA in Tris-Glycine buffer. Samples labeled with [^125I]-M808 were migrated until the dye front reached 0.5 cm above the end of the gel, and acrylamide 1 cm above the dye front was cut out to remove all free [^125I]-M808 and reduce background. The gels were fixed for 45 minutes in a 40% Methanol-10% Acetic acid solution and dried for 90 min at 80° C. before exposure on MS Kodak film with MS intensifying screens. For Western blotting, proteins were transferred onto a […] nitrocellulose membrane (Invitrogen) in Tris-Glycine-20% methanol buffer at 40V for 2 hours. Non-specific protein binding was minimized by incubating the membranes for 1 hour in blocking buffer (5% non-fat milk/TBS/0.1% Tween-20). Anti-caspase-3 (W R280 and MF467) were diluted 2000-fold in blocking buffer and incubated for 1 hour at 25° C. […] Densitometry was performed using a BioRad instrument and QuantityOne software. […]
A general note: Immunoblotting shows a protein as a band on a membrane.

Structures are written as SMILES. pIC50: −log10 of the molar value. Where two headings read alike, the source gives them in different places.

As to `CCCCCN(C)CC(=O)[C@H](CC(=O)O)NC(=O)[C@H](CC)n1cc(C(C)(C)C)nc(NCc2nonc2C)c1=O` [Example M867, (3S)-3-({(2S)-2-[5-tert-butyl-3-{[(4-methyl-1,2,5-oxadiazol-3-yl)methyl]amino}-2-oxopyrazin-1(2H)-yl]butanoyl}amino)-5-[methyl(pentyl)amino]-4-oxopentanoic acid], the pIC50 (usually −log10 of the IC50, conventionally taken in molar units) at caspase-3 [1] (five independent experiments, p=0.03 vs DNA fragmentation IC50, read-out: IC50 determined with M808) was 6.89; on caspase-3 [1] (whole rat thymocytes, experiment of FIG. 5, read-out: IC50, occupancy of caspase by M867 ([125I]-M808 labeling)), 6.85. Also, the “impact on caspase-3 cleavage” value on caspase-3 [2] is listed as “minimal impact on caspase-3 cleavage except at the highest concentration”.

The record behind these values is patent US20060069038A1, “Irreversible caspase-3 inhibitors as active site probes” (priority 2003, published 2006).
